{
  "source": "paper PMC11124362",
  "about": "“Metabolism, Disposition, Excretion, and Potential Transporter Inhibition of 7–16, an Improving 5-HT2A Receptor Antagonist and Inverse Agonist for Parkinson’s Disease” (Molecules, 2024)",
  "key": {"OATP1B1": {"target": "T1, OATP1B1 (Homo sapiens, UniProt Q9Y6L6)", "T1 sequence (Q9Y6L6 1-691)": "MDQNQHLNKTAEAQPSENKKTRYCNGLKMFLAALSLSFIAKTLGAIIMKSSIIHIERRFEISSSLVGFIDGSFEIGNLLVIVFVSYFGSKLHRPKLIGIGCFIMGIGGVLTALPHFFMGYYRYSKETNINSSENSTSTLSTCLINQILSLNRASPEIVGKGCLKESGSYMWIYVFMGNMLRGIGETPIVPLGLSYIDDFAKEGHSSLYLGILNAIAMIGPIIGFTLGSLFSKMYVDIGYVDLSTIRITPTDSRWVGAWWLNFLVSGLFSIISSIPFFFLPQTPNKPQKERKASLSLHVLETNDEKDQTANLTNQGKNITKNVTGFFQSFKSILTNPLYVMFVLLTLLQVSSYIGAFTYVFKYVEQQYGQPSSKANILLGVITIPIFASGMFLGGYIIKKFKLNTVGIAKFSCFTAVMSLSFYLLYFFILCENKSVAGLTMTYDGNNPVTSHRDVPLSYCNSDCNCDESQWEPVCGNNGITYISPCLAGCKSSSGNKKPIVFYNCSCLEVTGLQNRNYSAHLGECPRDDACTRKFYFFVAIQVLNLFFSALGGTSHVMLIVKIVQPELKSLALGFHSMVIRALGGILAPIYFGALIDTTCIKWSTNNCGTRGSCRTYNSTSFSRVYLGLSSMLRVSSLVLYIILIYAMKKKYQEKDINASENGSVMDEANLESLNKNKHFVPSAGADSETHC"}, "[1]": {"assay": "Metabolite identification in monkey liver microsomes", "type": "in vitro ADME", "details": "7–16 10 µM, liver microsomes 1 mg/mL, NADPH, 37 °C, 60 min", "procedure": "In accordance with our previous methods, 7–16 (10 µM) was incubated with mouse, rat, dog, monkey, and human liver microsome proteins (1 mg/mL) in 100 mM sodium phosphate buffer (pH 7.4) containing 10 mM magnesium chloride and 2 mM NADPH at 37 °C for 60 min. All samples were prepared in duplicates. The reactions were terminated by adding three times the volume of ice-cold acetonitrile (600 µL) and stored at −20 °C until analysis. Control samples without NADPH and 0-time point samples were included. As a positive control, testosterone (10 µM), which was metabolized to produce the hydroxylation metabolite, was used as a substrate to confirm the activity of the incubation system.\nAfter pre-treatments, the samples were analyzed by an Acquity UPLC system coupled with a diode array detector (Waters Corporation, Milford, MA, USA) and Q Exactive HRMS (Thermo Electron Corporation, Waltham, MA, USA) (UPLC–UV-Q Exactive HRMS). Samples were separated on an Agilent XDB C18 column (150 × 2.1 mm i.d. 3.5 μm, Agilent Corporation, Santa Clara, CA, USA) at 40 °C by gradient elution with water and acetonitrile containing 0.1% formic acid. The flow rate was 0.40 mL/min. The ultraviolet (UV) detection wavelength was 286 nm. Q Exactive HRMS were operated at positive ion mode (3.5 kV) using a heating electrospray ionization source. Mass calibration was required to be performed before conducting experiments so as to achieve the best mass accuracy and mass calibration should be performed every five days. The metabolites were detected by full MS/dd-MS^2 analysis from m/z 100 to m/z 1000. The resolution of the first-class scan and second-class scan was 70,000 and 17,500, respectively. Thermo Compound Discover software was used to identify expected and unknown metabolites, and we finally proposed the 7–16 metabolic pathways based on the deduced metabolites and relevant drug biotransformation knowledge."}},
  "data": [
    {"compound": "CN1CCC(N(Cc2ccc(F)cn2)C(=O)NCc2ccc(OCC(F)(F)F)cc2)CC1", "note": "[7–16, 3-(4-(2,2,2-trifluoroethoxy)benzyl)-1-((5-fluoropyridin-2-yl)methyl)-1-(1-methylpiperidin-4-yl) urea]", "values": [
      {"measurement": "IC50", "setting": "OATP1B1", "value": "> 100", "unit": "µM"},
      {"measurement": "Relative Abundance, UV Area% Monkey", "setting": "[1]", "value": 90.6, "unit": "%"}
    ]}
  ]
}
